Experimental data published in article PMC12229235 (Science signaling, 2024).

Target: AKT3 (Homo sapiens, UniProt Q9Y243)
Experiment: LANCE Ultra TR-FRET kinase assay with Ulight-crosstide substrate
Type: biochemical

Chain of AKT3 (Q9Y243 2-479): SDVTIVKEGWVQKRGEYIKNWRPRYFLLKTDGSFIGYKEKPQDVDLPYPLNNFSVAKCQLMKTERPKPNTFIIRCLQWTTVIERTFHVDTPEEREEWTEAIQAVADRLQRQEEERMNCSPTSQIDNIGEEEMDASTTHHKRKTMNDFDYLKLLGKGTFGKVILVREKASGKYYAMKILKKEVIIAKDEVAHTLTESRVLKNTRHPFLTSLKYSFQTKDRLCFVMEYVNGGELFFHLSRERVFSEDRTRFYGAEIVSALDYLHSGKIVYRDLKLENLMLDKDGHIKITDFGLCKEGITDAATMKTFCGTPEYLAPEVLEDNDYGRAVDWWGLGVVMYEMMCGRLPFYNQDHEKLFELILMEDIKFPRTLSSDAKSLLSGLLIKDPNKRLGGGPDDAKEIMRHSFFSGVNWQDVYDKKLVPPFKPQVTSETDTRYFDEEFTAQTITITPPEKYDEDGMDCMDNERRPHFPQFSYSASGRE
Chain of AKT3 (O15530 whole entry partner): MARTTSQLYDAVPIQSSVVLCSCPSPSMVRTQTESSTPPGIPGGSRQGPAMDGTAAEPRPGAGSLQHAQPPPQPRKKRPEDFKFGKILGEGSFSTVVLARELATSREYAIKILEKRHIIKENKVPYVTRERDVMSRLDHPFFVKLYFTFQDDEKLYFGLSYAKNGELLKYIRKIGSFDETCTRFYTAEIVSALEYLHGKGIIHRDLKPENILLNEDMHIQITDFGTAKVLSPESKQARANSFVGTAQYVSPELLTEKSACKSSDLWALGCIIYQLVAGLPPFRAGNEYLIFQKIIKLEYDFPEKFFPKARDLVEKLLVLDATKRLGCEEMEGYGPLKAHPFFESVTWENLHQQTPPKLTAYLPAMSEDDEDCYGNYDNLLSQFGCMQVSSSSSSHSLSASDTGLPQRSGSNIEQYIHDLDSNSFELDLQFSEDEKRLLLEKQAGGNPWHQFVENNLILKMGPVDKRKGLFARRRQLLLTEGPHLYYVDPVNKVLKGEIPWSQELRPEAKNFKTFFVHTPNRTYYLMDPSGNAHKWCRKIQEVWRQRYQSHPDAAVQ

In the case of `CC(=O)N(C)[C@H]1CC[C@H](CC(=O)Nc2cc(-c3ccccc3)c(-c3ccc(C4(N)CCC4)cc3)cn2)CC1` [AKT3i, N-(5-(4-(1-aminocyclobutyl)phenyl)-4-phenylpyridin-2-yl)-2-((1r,4r)-4-(N-methylacetamido)cyclohexyl) acetamide], the IC50 is reported as 0.013 µM.
